Laboratory results from patent publication US20210253598A1, “ARYL ANNULATED MACROCYCLIC INDOLE DERIVATIVES” (priority 2017, published 2021).
“And” between values parts separate entries of the source, which are not always exact repeats. Equal values may be shown once. Where a name gives a salt, the structure may show the parent alone. Read-outs that look alike come from different tables or passages of the source.

Tests used:
SUDHL5 [1] = test: Anti-proliferative effect in SUDHL5 cells, CellTiter-Glo (Assay 7); type: cell-based
Outline: (§1)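 Proliferation is measured as luminescence from CellTiter-Glo after cells grow with compound for 72 h in a humidified 37 °C incubator. A reference plate read at time zero supplies the day 0 baseline, and DMSO wells serve as control for IC50 calculation.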

A2780 = test: Anti-proliferative effect in A2780 cells, CellTiter-Glo (Assay 7); type: cell-based; conditions: several values per example
Outline: as §1

SUDHL5 [2] = test: Induction of caspase-3/7 activity in SUDHL5 cells (Assay 4); type: cell-based
Outline: (§2)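 DLBCL lines SUDHL5 and SUDHL10 were treated with compound for 3 h at 37 °C. Caspase-3/7 activity was then read by Caspase-Glo 3/7 luminescence after 1 h at 37 °C. Medium-only background was subtracted and values were normalized to the mean of DMSO-treated cells.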

SUDHL5 [3] = test: Induction of cytotoxicity in SUDHL5 cells, CellTiter-Glo (Assay 6); type: cell-based; conditions: SUDHL5, 5 hours incubation, median, read-out: Cytotox SUDHL5 [M] (median)
Outline: (§3)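 Viability of treated lymphoma cells is measured by luminescence with CellTiter-Glo reagent, incubated 15 minutes at room temperature. Compound exposure lasts 5 hours at 37° C.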

AMO-1 = test: Anti-proliferative effect in AMO-1 cells, CellTiter-Glo (Assay 7); type: cell-based
Experimental: Assessment of the Anti-Proliferative Effect of Compounds in Different Cell Lines
The impact of compounds on the proliferation of different cell lines was assessed using the CellTiter-Glo® Luminescent Cell Viability reagent from Promega (G7573).
In parallel, cells were plated in a reference (day 0) plate for time zero determination. Cells were incubated in a humidified incubator at 37° C. overnight.
Rim wells were excluded. The cells were incubated for 72 hours in a humidified incubator at 37° C. The day 0 plate was measured by adding 30 μL/well of CTG solution (CellTiter-Glo® Luminescent Cell Viability reagent, Promega G7573) to time zero wells in the reference plate followed by a 10 minutes incubation and luminescence reading at 0.1 ms. using the PHERAstar FS microplate reader (BMG Labtech).
After 72 hours incubation, the treated plates were measured in the same way as the day 0 plate mentioned above. The Bella DRC Master Sheet was used to calculate IC50s, with CI=day 0 values and C0=DMSO control values.

MV-4-11 = test: Anti-proliferative effect in MV-4-11 cells, CellTiter-Glo (Assay 7); type: cell-based; conditions: several values per example
Outline: as §1

SUDHL10 [4] = test: Induction of caspase-3/7 activity in SUDHL10 cells (Assay 4); type: cell-based
Outline: as §2

MCL-1 = MCL-1 (Homo sapiens, UniProt Q07820, K194A/K197A/R201A); test: Protein-protein interaction assay MCL-1/Noxa BH3 peptide, TR-FRET (MCL-1 assay, Assay 1); type: binding; conditions: MCL-1 Assay [M] (median), MBP-MCL-1 / Noxa BH3 peptide
Outline: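 Human MBP-fused MCL-1 (aa 173-321; 1 nM final) was pre-incubated 10 min at 22 °C with compound in pH 7 Tris buffer containing NaCl, KF, Tween-20, DTT and BGG. Displacement of biotinylated Noxa BH3 peptide was read by TR-FRET (anti-MBP-Eu cryptate/streptavidin-XL665) after 1 h at 22 °C plus overnight at 4 °C. IC50 came from four-parameter fits against DMSO controls.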

SUDHL10 [5] = test: Induction of cytotoxicity in SUDHL10 cells, CellTiter-Glo (Assay 6); type: cell-based; conditions: SUDHL10, 5 hours incubation, median, read-out: Cytotox SUDHL10 [M] (median)
Outline: as §3

[6] = Homo sapiens, SU-DHL-5, 72 h, SUDHL5, 72 hours incubation, CellTiter-Glo, median, read-out: Antiproli SUDHL5 [M] (median)
[7] = Homo sapiens, A2780, 72 h, A2780, 72 hours incubation, CellTiter-Glo, read-out: Antiproli A2780
[8] = Homo sapiens, SU-DHL-5, 3 h, SUDHL5, 3 hours treatment, Caspase-Glo 3/7, median, read-out: Caspase SUDHL5 [M] (median)
[9] = Homo sapiens, AMO1, 72 h, AMO-1, 72 hours incubation, CellTiter-Glo; several values per example; read-out: Antiproli AMO-1
[10] = Homo sapiens, MV4-11, 72 h, MV-4-11, 72 hours incubation, CellTiter-Glo, read-out: Antiproli MV-4-11
[11] = Homo sapiens, SU-DHL10, 3 h, SUDHL10, 3 hours treatment, Caspase-Glo 3/7, median, read-out: Caspase SUDHL10 [M] (median)
[12] = read-out: Caspase SUDHL5 [M] (median), SUDHL5, 3 hours treatment, Caspase-Glo 3/7
[13] = read-out: Antiproli AMO-1; AMO-1, 72 hours incubation, CellTiter-Glo; several values per example
[14] = read-out: Caspase SUDHL10 [M] (median), SUDHL10, 3 hours treatment, Caspase-Glo 3/7
[15] = read-out: Antiproli SUDHL5 [M] (median), SUDHL5, 72 hours incubation, CellTiter-Glo
[16] = read-out: Antiproli A2780, A2780, 72 hours incubation, CellTiter-Glo
[17] = read-out: Antiproli MV-4-11, MV-4-11, 72 hours incubation, CellTiter-Glo
[18] = A2780, 72 hours incubation, CellTiter-Glo, read-out: Antiproli A2780
[19] = AMO-1, 72 hours incubation, CellTiter-Glo; several values per example; read-out: Antiproli AMO-1
[20] = MV-4-11, 72 hours incubation, CellTiter-Glo, read-out: Antiproli MV-4-11

Chain of MCL-1 (Q07820 173-321 K194A/K197A/R201A, looked up): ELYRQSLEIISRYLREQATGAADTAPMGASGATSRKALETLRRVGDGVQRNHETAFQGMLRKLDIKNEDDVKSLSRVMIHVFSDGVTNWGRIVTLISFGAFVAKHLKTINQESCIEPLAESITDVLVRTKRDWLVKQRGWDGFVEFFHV

SMILES | IC50 (MCL-1) [M] | EC50 (SUDHL5 [2]; [12]) [M] | IC50 (SUDHL5 [3]) [M] | IC50 (AMO-1; [13]) | EC50 (SUDHL10 [4]; [14]) [M] | IC50 (SUDHL10 [5]) [M] | IC50 (SUDHL5 [1]; [15]) [M] | IC50 (A2780; [16]) [M] | IC50 (MV-4-11; [17]) | also measured
CCc1c2c(nn1C)COCc1ccccc1Cn1c(C(=O)O)c(CCCOc3cccc4cc(F)ccc34)c3ccc(Cl)c-2c31 (racemic) [Example 54, (rac)-3-Chloro-4-ethyl-17-{3-[(6-fluoronaphthalen-1-yl)oxy]propyl}-5-methyl-5,7,9,14-tetrahydroindolo[7,1-fg]pyrazolo[3,4-d][2,8]benzoxazacycloundecine-16-carboxylic Acid] | 8.3e-10 | – | – | – | – | – | – | – | – | IC50 (SUDHL5 [1]; [6]): 1.4e-06 M; IC50 (A2780; [7]): 6.59e-06 M; EC50 (SUDHL5 [2]; [8]): 8.4e-07 M; IC50 (SUDHL5 [3]; Homo sapiens, SU-DHL-5, 5 h): 9.3e-07 M; IC50 (AMO-1; [9]): 1.77 µM; IC50 (MV-4-11; [10]): 3.83e-06 M; EC50 (SUDHL10 [4]; [11]): 1.8e-06 M; IC50 (SUDHL10 [5]; Homo sapiens, SU-DHL10, 5 h): 2.6e-06 M
CCc1nn(C)c2c1-c1c(Cl)ccc3c(CCCOc4cccc5cc(F)ccc45)c(C(=O)O)n(c13)Cc1ccccc1COC2 (racemic) [Example 57, (rac)-3-Chloro-4-ethyl-17-{3-[(6-fluoronaphthalen-1-yl)oxy]propyl}-6-methyl-6,7,9,14-tetrahydro-indolo[7,1-fg]pyrazolo[3,4-d][2,8]benzoxazacycloundecine-16-carboxylic Acid] | 2.7e-09 | – | – | – | – | – | – | – | – | IC50 (SUDHL5 [1]; [6]): 2.4e-06 M; IC50 (A2780; [7]): 7.02e-06 M; EC50 (SUDHL5 [2]; [8]): 1.5e-06 M; IC50 (AMO-1; [9]): 2.65 µM; IC50 (MV-4-11; [10]): 2.19e-06 M; EC50 (SUDHL10 [4]; [11]): 4.3e-06 M; IC50 (SUDHL10 [5]; Homo sapiens, SU-DHL10, 5 h): 4.6e-06 M
Cc1c2c(nn1C)CN(S(=O)(=O)CCN1CCOCC1)Cc1ccccc1Cn1c(C(=O)O)c(CCCOc3cccc4ccccc34)c3cccc-2c31 (single isomer, unassigned; enantiomer 1) [Example 31, (+)-4,5-Dimethyl-8-[2-(morpholin-4-yl)ethanesulfonyl]-17-{3-[(naphthalen-1-yl)oxy]propyl}-7,8,9,14-tetrahydro-5H-indolo[1,7-bc]pyrazolo[4,3-e][2,8]benzodiazacycloundecine-16-carboxylic acid-N-ethylethanamine Salt (Enantiomer 1)] | 1.3e-08 | 5.2e-06 | 5.3e-06 | 5.93 µM | 9.7e-06 | > 7.8e-05 | – | – | – | IC50 (SUDHL5 [1]; Homo sapiens, SU-DHL-5, 72 h, read-out: Antiproli SUDHL5 [M] (median), SUDHL5, 72 hours incubation, CellTiter-Glo): 4.8e-06 M; IC50 (A2780; Homo sapiens, A2780, 72 h, read-out: Antiproli A2780 [M], A2780, 72 hours incubation, CellTiter-Glo): 6.72e-06 M; IC50 (MV-4-11; Homo sapiens, MV4-11, 72 h, read-out: Antiproli MV-4-11 [M], MV-4-11, 72 hours incubation, CellTiter-Glo): 5.49e-06 M
Cc1c2c(nn1C)CN(S(=O)(=O)CCN1CCOCC1)Cc1ccccc1Cn1c(C(=O)O)c(CCCOc3cccc4ccccc34)c3cccc-2c31 (single isomer, unassigned; enantiomer 2) [Example 32, (−)-4,5-Dimethyl-8-[2-(morpholin-4-yl)ethanesulfonyl]-17-{3-[(naphthalen-1-yl)oxy]propyl}-7,8,9,14-tetrahydro-5H-indolo[1,7-bc]pyrazolo[4,3-e][2,8]benzodiazacycloundecine-16-carboxylic acid-N-ethylethanamine Salt (Enantiomer 2)] | 1.8e-07 | > 3.3e-05 | > 3.3e-05 | 13.5 µM | > 3.3e-05 | > 3.3e-05 | 4.5e-06 | 1.08e-05 | 8.42e-06 M | –
Cc1c2c(nn1C)COCc1cccnc1Cn1c(C(=O)O)c(CCCOc3cccc4ccccc34)c3ccc(Cl)c-2c31 (single isomer, unassigned; enantiomer 2) [Example 41, 3-Chloro-4,5-dimethyl-17-[3-(naphthalen-1-yloxy)propyl]-5,7,9,14-tetrahydropyrazolo-[4′,3′:9,10]pyrido[3′,2′:3,4][1,6]oxazacycloundecino[8,7,6-hi]indole-16-carboxylic acid-N-ethylethanamine Salt (Enantiomer 2)] | 5.8e-09 | 6.1e-06 | 6e-06 | 8.4 µM and 11.2 µM | 1.6e-05 | 1.4e-05 | 5.2e-06 | > 3.3e-05 | 1.59e-05 M and 8.2e-06 M | –
CCc1nn(CCN2CCOCC2)c2c1-c1c(Cl)ccc3c(CCCOc4cccc5cc(F)ccc45)c(C(=O)O)n(c13)Cc1ccccc1COC2 (single isomer, unassigned; enantiomer 2) [Example 53, (+)-3-Chloro-4-ethyl-17-{3-[(6-fluoronaphthalen-1-yl)oxy]propyl}-6-[2-(morpholin-4-yl)ethyl]-6,7,9,14-tetrahydroindolo[7,1-fg]pyrazolo[3,4-d][2,8]benzoxazacycloundecine-16-carboxylic Acid (Enantiomer 2)] | 8.3e-09 | – | 2.3e-06 | – | – | 6.5e-06 | – | – | – | IC50 (SUDHL5 [1]; SUDHL5, 72 hours incubation, CellTiter-Glo, median, read-out: Antiproli SUDHL5 [M] (median)): 2.8e-06 M; IC50 (A2780; [18]): 8.15e-06 M; EC50 (SUDHL5 [2]; SUDHL5, 3 hours treatment, Caspase-Glo 3/7, median, read-out: Caspase SUDHL5 [M] (median)): 1.8e-06 M; IC50 (AMO-1; [19]): 9.44 µM; IC50 (MV-4-11; [20]): 4.91e-06 M and 8.2e-06 M; EC50 (SUDHL10 [4]; SUDHL10, 3 hours treatment, Caspase-Glo 3/7, median, read-out: Caspase SUDHL10 [M] (median)): 5.9e-06 M
CCc1c2c(nn1C)COCc1ccccc1Cn1c(C(=O)O)c(CCCOc3cccc4ccccc34)c3ccc(F)c-2c31 (single isomer, unassigned; enantiomer 2) [Example 72, (+)-4-Ethyl-3-fluoro-5-methyl-17-{3-[(naphthalen-1-yl)oxy]propyl}-5,7,9,14-tetrahydroindolo[7,1-fg]pyrazolo[3,4-d][2,8]benzoxazacycloundecine-16-carboxylic acid-N-ethylethanamine Salt (Enantiomer 2)] | 5.2e-09 | 1.2e-05 | 8.5e-06 | 18.9 µM | > 2.8e-05 | 2.6e-05 | 1.2e-05 | 1.5e-05 | 9.57e-06 M | –
Cc1c2c(nn1C)COCc1cccnc1Cn1c(C(=O)O)c(CCCOc3cccc4ccccc34)c3cccc-2c31 [Example 06] | – | – | – | – | – | – | – | – | – | IC50 (A2780; [18]): 8.66e-06 M; IC50 (AMO-1; [19]): 19.9 µM; IC50 (MV-4-11; [20]): 5.38e-06 M
